This is an account of results in patent publication US7129238B2, “Mandelic acid derivatives” (Hoffmann-La Roche Inc., priority 2002, dated 2006).

pKi: −log10 of the molar value. Structures can show the parent of a compound that is named as a salt.

T1 sequence (P08709 213-466 limits assumed): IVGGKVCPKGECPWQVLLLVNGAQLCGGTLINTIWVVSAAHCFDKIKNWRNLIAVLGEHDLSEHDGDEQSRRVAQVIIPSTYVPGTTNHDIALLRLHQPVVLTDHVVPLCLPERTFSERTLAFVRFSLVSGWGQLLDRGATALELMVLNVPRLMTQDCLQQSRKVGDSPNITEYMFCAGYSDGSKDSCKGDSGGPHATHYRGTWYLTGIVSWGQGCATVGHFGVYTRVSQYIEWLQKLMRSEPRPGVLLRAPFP
T1 sequence (P08709 61-212 limits assumed): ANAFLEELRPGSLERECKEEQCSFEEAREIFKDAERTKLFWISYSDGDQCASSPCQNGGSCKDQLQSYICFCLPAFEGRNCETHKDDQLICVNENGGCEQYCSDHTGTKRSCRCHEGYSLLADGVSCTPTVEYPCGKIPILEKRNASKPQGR
T1 sequence (P13726 33-295 partner): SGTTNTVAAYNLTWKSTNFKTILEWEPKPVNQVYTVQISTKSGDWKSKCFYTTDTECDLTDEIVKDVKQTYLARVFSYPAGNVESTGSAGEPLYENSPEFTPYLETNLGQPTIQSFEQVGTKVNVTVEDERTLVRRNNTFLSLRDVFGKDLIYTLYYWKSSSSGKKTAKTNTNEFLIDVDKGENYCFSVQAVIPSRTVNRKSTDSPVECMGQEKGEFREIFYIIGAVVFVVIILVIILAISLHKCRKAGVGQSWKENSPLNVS

This assay has as its target T1, factor VIIa/tissue factor complex (Homo sapiens, UniProt P08709).
T1 construct: 9 nM of soluble factor VIIa
Kind of assay: inhibition of the amidolytic activity of factor VIIa/tissue factor complex (chromogenic peptide substrate). In kind it is biochemical. The settings on record: soluble factor VIIa, substrate Chromozym-tPA, pH 7.5, room temperature. Here is the method:
The measurements were carried out by an automated robotic assay on microtitre plates at room temperature. To this end, 100 μL of a solution of 26 nM of tissue factor, 9 nM of soluble factor VIIa and 8 mM of calcium chloride were added to 25 μL of a solution of the inhibitor in a buffer [pH 7.5, 100 mM, comprising 0.14M NaCl, 0.1M N-(2-hydroxyethyl)piperazine-N′-(2-ethanesulphonic acid) (HEPES), 0.5 mg/l of fatty-acid-free BSA (bovine serum albumin) and 0.05% NaN3] in each well of the plate. After an incubation time of 15 minutes the reaction was started by the addition of 50 μl of chromogenic substrate Chromozym-tPA (3.5 mM, MeSO2-D-Phe-Gly-Arg-paranitroanilide) and the hydrolysis of the substrate was followed spectrophotometrically on a kinetic microtitre plate reader over 10 minutes. Using the plot of the inhibition curves, the Ki values were determined according to the method described in Biochem. J. 55, 1953, 170–171.
Consider `COc1cc(F)c(C(OC)C(=O)NCc2ccc(C(=N)N)cc2)cc1OC` (racemic) [Example 24.3, (RS)-N-(4-carbamimidoyl-benzyl)-2-(2-fluoro-4,5-dimethoxy-phenyl)-2-methoxy-acetamide hydrochloride], for which the pKi is 5.66. The value for `CCOc1ccc(C(OC)C(=O)NCc2ccc(C(=N)N)cc2)c(F)c1OCC` (racemic) [Example 33.3, (RS)-N-(4-carbamimidoyl-benzyl)-2-(3,4-diethoxy-2-fluoro-phenyl)-2-methoxy-acetamide hydrochloride] was 6.31; that for `COc1ccc2cc(C(OC)C(=O)NCc3ccc(C(=N)N)cc3)ccc2c1` (racemic) [Example 53.3, (RS)-N-(4-carbamimidoyl-benzyl)-2-methoxy-2-(6-methoxy-naphthalen-2-yl)-acetamide hydrochloride] was 5.65. `COC(C(=O)NCc1ccc(C(=N)N)cc1)c1ccc(OCCc2ccc(F)cc2)cc1F` (racemic) [Example 72.2, (RS)-N-(4-carbamimidoyl-benzyl)-2-{2-fluoro-4-[2-(4-fluoro-phenyl)-ethoxy]-phenyl}-2-methoxy-acetamide hydrochloride] gave a pKi of 5.68.

`CCOC(C(=O)NCc1ccc(C(=N)N)cc1OCC(N)=O)c1c(F)cc(OC)cc1F` (racemic) [Example 126.3, (RS)-N-(4-carbamimidoyl-2-carbamoylmethoxy-benzyl)-2-(2,6-difluoro-4-methoxy-phenyl)-2-ethoxy-acetamide hydrochloride] showed a pKi of 7.70. With `CCOC(C(=O)NCc1ccc(C(=N)N)cc1OCC(=O)NCCOC)c1c(F)cc(OC)cc1F` (racemic) [Example 129, (RS)-N-{4-Carbamimidoyl-2-[(2-methoxy-ethylcarbamoyl)-methoxy]-benzyl}-2-(2,6-difluoro-4-methoxy-phenyl)-2-ethoxy-acetamide hydrochloride] the figure was 7.68; with `COc1cc(F)c(C(OC)C(=O)NCc2ccc(C(=N)N)cc2OCc2ccccn2)c(F)c1` (racemic) [Example 141, (RS)-N-[4-carbamimidoyl-2-(pyridin-2-ylmethoxy)-benzyl]-2-(2,6-difluoro-4-methoxy-phenyl)-2-methoxy-acetamide hydrochloride], 7.36; with `CCOC(C(=O)NCc1ccc(C(=N)N)cc1)c1c(F)cc(-c2cnc(N)nc2)cc1F` (racemic) [Example 266, (RS)-2-[4-(2-Amino-pyrimidin-5-yl)-2,6-difluoro-phenyl]-N-(4-carbamimidoyl-benzyl)-2-ethoxy-acetamide hydrochloride], 6.62. With `CCOC(C(=O)NCc1ccc(C(=N)N)cc1)c1c(F)cc(-c2cccnc2)cc1F` (racemic) [Example 267, (RS)-N-(4-Carbamimidoyl-benzyl)-2-(2,6-difluoro-4-pyridin-3-yl-phenyl)-2-ethoxy-acetamide hydrochloridr] the figure was 6.43; with `CCOC(C(=O)NCc1ccc(C(=N)N)cc1)c1c(F)cc(-c2ccc(N)cn2)cc1F` (racemic) [Example 269, (RS)-2-[4-(5-Amino-pyridin-2-yl)-2,6-difluoro-phenyl]-N-(4-carbamimidoyl-benzyl)-2-ethoxy-acetamide hydrochloride], 6.49. As to `CCOC(C(=O)NCc1ccc(C(=N)N)cc1)c1c(F)cc(-c2ccc(N)nc2)cc1F` (racemic) [Example 271, (RS)-(2-[4-(6-Amino-pyridin-3-yl)-2,6-difluoro-phenyl]-N-(4-carbamimidoyl-benzyl)-2-ethoxy-acetamide hydrochloride], the negative logarithm of the Ki (pKi) was 6.81.

For the compound `CCOC(C(=O)NCc1ccc(C(=N)N)cc1)c1c(F)cc(OCc2ccccn2)cc1F` (racemic) [Example 294.2, (RS)-N-(4-carbamimidoyl-benzyl)-2-[2,6-difluoro-4-(pyridin-2-ylmethoxy)-phenyl]-2-ethoxy-acetamide hydrochloride], the pKi is 6.23.

On to `CCOC(C(=O)NCc1ccc(C(=N)N)cc1NCc1ccccc1)c1ccc(OC)cc1F` (racemic) [Example 323, (RS)-N-(2-Benzylamino-4-carbamimidoyl-benzyl)-2-ethoxy-2-(2-fluoro-4-methoxy-phenyl)-acetamide acetate], for which the pKi is 7.19. With `CCOC(C(=O)NCc1ccc(C(=N)N)cc1NCC(=O)O)c1ccc(OC)cc1F` (racemic) [Example 329, (RS)-(5-carbamimidoyl-2-j [2-ethoxy-2-(2-fluoro-4-methoxy-phenyl)-acetylamino]-methyl)-phenylamino)-acetic acid acetate] the figure was 6.92; with `CCOC(C(=O)NCc1c(F)cc(C(=N)N)cc1F)c1c(F)cc(-c2ccc(N)nc2)cc1F` (racemic) [Example 336.2, (RS)-2-[4-(6-amino-pyridin-3-yl)-2,6-difluoro-phenyl]-N-(4-carbamimidoyl-2,6-difluoro-benzyl)-2-ethoxy-acetamide acetate], 6.22; with “(RS)-(4-carbamimidoyl-2-carbamoylmethoxy-benzyl)-2-[2,6-difluoro-4-(pyridin-2-ylmethoxy)-phenyl]-2-ethoxy-acetamide hydrochloride [Example 335.5]”, 7.77. With “(RS)-{4-Carbamimidoyl-2-[(pyridin-2-ylmethyl)-amino]-benzyl}-2-ethoxy-2-(2-fluoro-4-methoxy-phenyl)-acetamide hydrochloride [Example 325]” the figure was 7.11.

A word on the pKi: it is the Ki on a negative log10 scale, so that one unit is a factor of ten. Read a high pKi as a low Ki.
